# Results from US11534412B2, “Application of totarol and pharmaceutical composition containing totarol” (Emergopharm SP. Z O.O. SP.K., priority 2017, dated 2022).
# Like-named read-outs stand apart in the source and are kept apart here.
# Legend:
# [1] = test system: human vaginal epithelial cells of the A-431 cell line; type: cell-based
# Procedure: Test of totarol impact on the human vaginal epithelial cells of the A-431 cell line (ATCC® The study was carried out using the following test: Annexin-V-Fluos (Roche, Mannheim, Germany), during incubation for 2, 8 and 24 hours, under in vitro conditions, according to the instructions of the test's manufacturer. The totarol sample was prepared by dissolution of 3 mg of totarol in 3 ml of 100% DMI.
# The cultivation time for the A-431 cell line was 20 days. The culture was carried out at a temperature of 37° C. in an atmosphere containing 10% CO2, on a DMEM culture medium (Institute of Immunology and Experimental Therapy PAS [IITD PAN], Wroclaw), with an addition of 10% of foetal bovine serum (FBS, Sigma-Aldrich). The culture fluid were being replaced regularly every 48 hours. After achieving a decantable growth or the so-called “monolayer”, the cells were passaged using (for approx. 10 min) 0.25% trypsin (Sigma-Aldrich). Then, the obtained tissue line was passed to 24-well plates (TPP), adjusting their densities to the value of 5×10^5 per well. The tissue culture of the studied lines was carried out for 3 next days on the surface of sterile microscope slides placed on the bottom of a 24-well plate, until a decantable growth was obtained on the surface of the microscope slides. After obtaining the so-called “monolayer”, the cells were washed with PBS without Ca^2+ and Mg^2+ ions (IITD PAN, Wroclaw), and poured with 700 µl of fresh DMEM medium with 10% FBS, together with 300 μl of properly prepared totarol. • Negative control: 1000 μl of fresh DMEM medium with 10% FBS. • Solvent control: 700 μl of fresh DMEM medium with 10% FBS+300 μl of DMI solvent. • Necrosis positive control: 900 μl of fresh DMEM medium with 10% FBS+100 μl H2O2 (30%). The proper examination using the Annexin-V-Fluos test causes green staining of apoptotic cells. […] This dye has an ability to penetrate the cell's interior freely only through a damaged cellular membrane, staining the interior red. In the case of a lack of damages of the cellular membrane, propidium iodide remains on its surface, forming a characteristic red “halo” around the cell. After a corresponding study time, i.e. 2, 8, and 24 hours, the culture fluid was removed, the content was washed with PBS (pre-heated to a temperature of 37° C.) twice. Then, 100 μl of the fluorescent stains mixture including in the Annexin-V-Fluos (Roche) kit were applied on the surface of each microscope slide (placed in a culture well) and additionally, Hoechst stain was used (cellular DNA staining). The staining procedure was carried out according to the manufacturer's recommendations. The culture together with the stains applied onto it were incubated at room temperature for 20 min. The intensity of light emitted by the cells stained with the individual stains was observed using a fluorescent microscope at the wavelength of 494-520 nm, using 400× magnification. The cells were counted in five visual fields, and the results were averaged. The reliability of the tests carried out is confirmed by hydrogen peroxide used as a positive control, causing a distinct necrosis process already after 2 hours of incubation. Data analyses were carried out on the basis of the average number of cells from five visual fields in the individual times (2, 8, and 24 h). The results are presented in Table 6 and in the form of photographic documentation—FIGS. 1, 2, 3, 4.
# [2] = Solubility in water; type: physicochemical
compound,measurement,setting,value
"CC(C)c1c(O)ccc2c1CC[C@H]1C(C)(C)CCC[C@]21C [Totarol, totarol]","apoptosis and necrosis in epithelial cells, photographic documentation",[1],No apoptosis and necrosis
same,apoptotic and necrotic impact on human vaginal epithelial A-431 cells,[1],lack of apoptotic and necrotic impact
same,Alive cells,"[1]; human, 2 h, 0.3 mg/mL",100
same,Apopt. cells,"[1]; human, 2 h, 0.3 mg/mL",0
same,Necrot. cells,"[1]; human, 2 h, 0.3 mg/mL",0
same,Alive cells,"[1]; human, 8 h, 0.3 mg/mL",100
same,Apopt. cells,"[1]; human, 8 h, 0.3 mg/mL",0
same,Necrot. cells,"[1]; human, 8 h, 0.3 mg/mL",0
same,Alive cells,"[1]; human, 24 h, 0.3 mg/mL",100
same,Apopt. cells,"[1]; human, 24 h, 0.3 mg/mL",0
same,Necrot. Cells,"[1]; human, 24 h, 0.3 mg/mL",0
same,solubility in water,[2],complete lack of solubility in water
